Earlier results in PMC9008720 (Biomedical chromatography : BMC, 2022).

System: GBM tumor
Conditions: ref Zalcman et al., 2018

Compound: CNC(=O)c1ccc(N2C(=S)N(c3ccc(C#N)c(C(F)(F)F)c3)C(=O)C2(C)C)cc1F [enzalutamide]
- GBM tumor growth in nude mice: reduced the GBM tumor growth
